Patent US20030109503A1, “Pharmaceutical formulations comprising clavulanic acid alone or in combination with other beta-lactam antibiotics” (SmithKline Beecham p.l.c., priority 1995, published 2003)
Like-named read-outs stand apart in the source and are kept apart here.

Columns and labels:
[1] = test system: β-lactamase producing strains of H. influenzae; experiment: MIC in agar, serial dilution, alone or with constant clavulanic acid; format: cell-based
Procedure: (§1) Determinations of the minimum inhibitory concentration (MIC) were performed in agar using serial dilutions of the test compounds alone or in the presence of constant concentrations of clavulanic acid (2 or 4 μg/ml). The agar used was Mueller Hinton (BBL) supplemented with 5% lysed horse blood in the case of H. influenzae and M. catarrhalis, except for B. fragilis where Wilkins-Chalgren agar (Oxoid) was used. A multipoint inoculator was used to drop 1 μl of undiluted culture of S. aureus, 10-fold dilutions of B. fragilis, H. influenzae and M. catarrhalis and 100-fold dilutions of E. coli and K. pneumoniae onto the surface of the agar, to give an inoculum of approximately 10^4 to 10^5 cfu/spot.

[2] = test system: β-lactamase producing strains of S. aureus; experiment: as above; format: cell-based
Procedure: as §1

B. fragilis = experiment: MIC in agar (Wilkins-Chalgren), serial dilution, alone or with constant clavulanic acid; format: cell-based, Bacteroides fragilis
Procedure: as §1

[3] = test system: plasmid mediated β-lactamase producing strains of K. pneumoniae; experiment: MIC in agar, serial dilution, alone or with constant clavulanic acid; format: cell-based, Klebsiella pneumoniae
Procedure: as §1

[4] = test system: β-lactamase producing strains of M. catarrhalis; experiment: as above; format: cell-based, Moraxella catarrhalis
Procedure: as §1

[5] = test system: plasmid mediated β-lactamase producing strains of E. coli; experiment: as above; format: cell-based, Escherichia coli
Procedure: as §1

[6] = clavulanic acid at 2 or 4 μg/ml
[7] = Gmean MIC values reduced considerably

## N[C@@H](C(=O)N[C@@H]1C(=O)N2C(C(=O)O)=C(Cl)CS[C@H]12)c1ccccc1 [cefaclor]
[1]; H.influenzae (15 strains), CA2/CA4 = constant 2 or 4 μg/ml clavulanic acid
  MIC range: 2 to 16 µg/mL
[1]; Haemophilus influenzae, H.influenzae (15 strains), CA2/CA4 = constant 2 or 4 μg/ml clavulanic acid
  MIC90: 16 µg/mL
[1]; Haemophilus influenzae, H.influenzae (15 strains), CA2/CA4 = constant 2 or 4 μg/ml clavulanic acid, read-out: Gmean (geometric mean MIC)
  MIC: 7.64 µg/mL
[1]; Haemophilus influenzae, H.influenzae (15 strains), CA2/CA4 = constant 2 or 4 μg/ml clavulanic acid, read-out: MIC75
  MIC: 16 µg/mL
[2]; S.aureus P+ (10 strains), CA2/CA4 = constant 2 or 4 μg/ml clavulanic acid
  MIC range: 1 to 256 µg/mL
[2]; Staphylococcus aureus, S.aureus P+ (10 strains), CA2/CA4 = constant 2 or 4 μg/ml clavulanic acid
  MIC90: 64 µg/mL
[2]; Staphylococcus aureus, S.aureus P+ (10 strains), CA2/CA4 = constant 2 or 4 μg/ml clavulanic acid, read-out: Gmean (geometric mean MIC)
  MIC: 12.4 µg/mL
[2]; Staphylococcus aureus, S.aureus P+ (10 strains), CA2/CA4 = constant 2 or 4 μg/ml clavulanic acid, read-out: MIC75
  MIC: 32 µg/mL
[2]; Staphylococcus aureus, in the presence of 2 μg/ml clavulanic acid, read-out: geometric mean (Gmean) MIC of cefaclor
  MIC: 1.13 µg/mL
[2]; Staphylococcus aureus, in the presence of 4 μg/ml clavulanic acid, read-out: geometric mean (Gmean) MIC of cefaclor
  MIC: 0.73 µg/mL
B. fragilis; B.fragilis (19 strains), CA2/CA4 = constant 2 or 4 μg/ml clavulanic acid
  MIC range: 64 to 512 µg/mL
B. fragilis; Bacteroides fragilis, B.fragilis (19 strains), CA2/CA4 = constant 2 or 4 μg/ml clavulanic acid
  MIC90: 128 µg/mL
B. fragilis; Bacteroides fragilis, B.fragilis (19 strains), CA2/CA4 = constant 2 or 4 μg/ml clavulanic acid, read-out: Gmean (geometric mean MIC)
  MIC: 151 µg/mL
B. fragilis; Bacteroides fragilis, B.fragilis (19 strains), CA2/CA4 = constant 2 or 4 μg/ml clavulanic acid, read-out: MIC75
  MIC: 4 µg/mL
[3]; Klebsiella pneumoniae
  MIC90: 256 µg/mL
[3]; Klebsiella pneumoniae, read-out: Gmean (geometric mean MIC)
  MIC: 17.7 µg/mL
[3]; Klebsiella pneumoniae, read-out: MIC75
  MIC: 256 µg/mL
[4]; M.catarrhalis (14 strains), CA2/CA4 = constant 2 or 4 μg/ml clavulanic acid
  MIC range: 1 to 8 µg/mL
[4]; Moraxella catarrhalis, M.catarrhalis (14 strains), CA2/CA4 = constant 2 or 4 μg/ml clavulanic acid
  MIC90: 8 µg/mL
[4]; Moraxella catarrhalis, M.catarrhalis (14 strains), CA2/CA4 = constant 2 or 4 μg/ml clavulanic acid, read-out: Gmean (geometric mean MIC)
  MIC: 4.88 µg/mL
[4]; Moraxella catarrhalis, M.catarrhalis (14 strains), CA2/CA4 = constant 2 or 4 μg/ml clavulanic acid, read-out: MIC75
  MIC: 8 µg/mL
[5]; E.coli R+ (11 strains), CA2/CA4 = constant 2 or 4 μg/ml clavulanic acid
  MIC range: 1 to 32 µg/mL
[5]; Escherichia coli
  MIC90: 32 µg/mL
[5]; Escherichia coli, read-out: Gmean (geometric mean MIC)
  MIC: 4.32 µg/mL
[5]; Escherichia coli, read-out: MIC75
  MIC: 4 µg/mL

## O=C(O)[C@H]1/C(=C/CO)O[C@@H]2CC(=O)N21 [clavulanic acid]
[1]; [6]
  effect of clavulanic acid on the activity of cefaclor: improved the activity of cefaclor
[2]; 2 and 4 μg/ml clavulanic acid
  effect of clavulanic acid on the activity of cefaclor: markedly improved the activity of cefaclor
B. fragilis; [6]
  effect of clavulanic acid on the activity of cefaclor: improved the activity of cefaclor
[3]; [7]
  effect of clavulanic acid on the activity of cefaclor: improved
[4]; [6]
  effect of clavulanic acid on the activity of cefaclor: improved the activity of cefaclor
[5]; [7]
  effect of clavulanic acid on the activity of cefaclor: improved
